Data taken from patent US20130281410A1, “METHODS FOR THE TREATMENT OF PSYCHIATRIC DISORDERS” (University of Utah Research Foundation, priority 2010, published 2013).

Tests used:
[1] = system: adolescent MDD patients living at high altitude; assay: Clinical study of creatine monohydrate in adolescent MDD patients living at high altitude (CDRS); format: in vivo, human; conditions: adolescents with MDD, Salt Lake City (4,300 feet), 5 g/day creatine monohydrate as a powder, 1 to 10 weeks
Method: Clinical assessment was performed using the Children's Depression Rating Scale (CDRS).
A clinical study was performed to determine the effect of creatine on adolescent MDD patients living at high altitude (Salt Lake City; elevation of 4,300 feet). In this study, three adolescents diagnosed as having MDD and living at high altitude were administered 5 g/day of creatine monohydrate (as a powder). The subjects in the study were monitored using the Children's Depression Rating Scale (CDRS). The study was performed for 1 to 10 weeks.

male MDD subjects = assay: Clinical study of creatine monohydrate in male MDD subjects (HAMD, BDI); format: in vivo, human; conditions: 5 g/day creatine monohydrate as a powder vs placebo, 0 to 8 weeks, FIGS. 1A and 1B
Method: FIGS. 1A and 1B show clinical assessment data of male subjects having MDD upon treatment with placebo (grey lines) or creatine monohydrate (5 g/day, black lines) for 0 to 8 weeks. Clinical assessment was performed using the Hamilton Depressing Rating Scale (FIG. 1A) or the Beck Depression Inventory scale (FIG. 1B).
A clinical study was performed to study the effect of creatine administration on male MDD subjects. A total of 6 male subjects (mean age of 42.7 years; age range 27 to 63) were enrolled in this study. Among the subjects, 5 subjects (mean age of 38.6 years; age range of 27 to 59) underwent at least one follow-up assessment. Three subjects received 5 g/day creatine monohydrate (as a powder), and two subjects received a placebo. The MDD symptoms of the subjects were assessed using the Hamilton Depression Rating Scale (HAMD) (FIG. 1A) or the Beck Depression Inventory (BDI) (FIG. 1B). The baseline HAMD total score for intention-to-treat sample was 30.4 (standard deviation of 5.1) and the baseline BDI total score was 31 (standard deviation of 11.3).

CN(CC(=O)O)C(=N)N.O [creatine, creatine monohydrate]
symptoms of MDD in patients living at high altitude [1]: reduces the symptoms of MDD in patients living at high altitude
Children's Depression Rating Scale (CDRS) score ([1]; after failing an SSRI trial, FIG. 2): reduction in CDRS score
symptoms of MDD, Hamilton Depression Rating Scale (HAMD) and Beck Depression Inventory (BDI) (male MDD subjects): reduces the symptoms of MDD in male subjects
